{"source": "patent US20050282877A1", "about": "“Method of decreasing inflammation in kidney transplantion using angiotensin receptor blockers” (priority 2004, published 2005)", "key": {"[1]": {"settings": "cited from earlier work"}, "plasma proteins": {"test_system": "plasma proteins", "settings": "in vivo; cited from earlier work"}, "urinary H2O2": {"test_system": "urinary H2O2", "test": "Detection of urinary hydrogen peroxide (H2O2) in kidney transplant recipients with CAN", "format": "in vivo, human", "settings": "mean±SD", "method": "The study, enrollment process, and protocols described herein were approved by the University of Wisconsin Institutional Review Board. Individuals with evidence of chronic allograft dysfunction have allograft functionality greater than 6 months with serum creatinine≧0.3 mg/dl above discharge creatinine. In the absence of acute rejection, these individuals have obstructive uropathy or urinary tract infection. To be eligible for the study, individuals also had concomitant evidence of elevated blood pressure (>140/80) and/or proteinuria (>2+ on dipstick urinalysis or spot urine protein-to-creatinine ratio>1).\n(§1) Once identified, study subjects were randomized and treated with either losartan (25-100 mg) as part of their anti-hypertensive regimen or with other types of anti-hypertensive agents, e.g., calcium channel blockers. Agents functioning as AT1R blockers were excluded. Neither group received ACE inhibitors. Study subjects were maintained on their standard immunosuppressive regimen (corticosteroids 5-10 mg orally daily; mycophenolate mofetil 500 to 1000 mg orally twice a day; and calcineurin inhibition with either tacrolimus (target levels 2-5 ng/ml), cyclosporine A (target levels 100-150 ng/ml), or rapamycin (target levels 5-15 ng/ml ).\n(§2) Study subjects underwent biopsies at the initiation of the study. Simultaneously, whole blood samples were obtained for analysis of peripheral blood lymphocyte proliferation and stimulated cytokine production. Subsequent whole blood samples were obtained at three-month intervals for serial analyses. […] Estimated glomerular filtration rate (eGFR) was assessed using the second equation derived by Nankivell. […]\nThe Amplex Red Hydrogen Peroxide/Peroxidase Assay Kit (Molecular Probes, Eugene, Ore.) was used according to the manufacturer's instructions to measure H2O2. […] A microplate reader with fluorescence emission detection at 590 nm was used to measure H2O2 levels. H2O2 concentrations were read from the standard curve."}, "[2]": {"test_system": "peripheral blood lymphocytes (PBLs)", "test": "Proliferation assay ([3H]-thymidine) of CD3/CD28-stimulated PBLs from CAN patients", "format": "in vivo, human", "description": "Once identified, study subjects were randomized and treated with either losartan (25-100 mg) as part of their anti-hypertensive regimen or with other types of anti-hypertensive agents, e.g., calcium channel blockers. Agents functioning as AT1R blockers were excluded. Neither group received ACE inhibitors. Study subjects were maintained on their standard immunosuppressive regimen (corticosteroids 5-10 mg orally daily; mycophenolate mofetil 500 to 1000 mg orally twice a day; and calcineurin inhibition with either tacrolimus (target levels 2-5 ng/ml), cyclosporine A (target levels 100-150 ng/ml), or rapamycin (target levels 5-15 ng/ml ). Eight to nine milliliters of whole blood taken at each time point from each individual were incubated at room temperature in 40 ml ACK lysis buffer (150 mM NH4Cl, 10 mM KHCO3, 0.1 mM Na2EDTA, pH 7.3) for 10 minutes to lyse red blood cells. Samples were then centrifuged at 1000 rpm. The supernatant was discarded. Cells were resuspended in 10 ml complete RPMI media (RPMI-1640, BioWhitaker, Walkersville, Md.) supplemented with FCS (Sigma Aldrich, St. Louis, Mo.); 2 mM L-glutamine (BioWhitaker); 50 μM 2-β-mercaptoethanol (Sigma Aldrich); 100 U/ml penicillin; and 100 μg/ml streptomycin sulfate (Sigma Aldrich). Twenty μl of this sample was removed for cell enumeration. Forty ml of complete RPMI media was then added to the remaining sample and this was centrifuged at 1000 rpm for 10 minutes. The resulting PBL pellet was resuspended in complete RPMI media at a concentration of 1.5×10^6 cells per ml. CD3/CD28-coated plates were coated with antibody diluted in PBS (1 mg/mI). […] Some plates were analyzed immediately after the overnight incubation. Other plates were frozen at 20EC and then analyzed within 30 days of the initial study. [^3H]-Thymidine incorporation was then determined using a Packard TopCount NXT scintillation plate reader. […] The Δ proliferation index was then calculated by assessing the difference between the proliferation index at baseline and the proliferation index at various study time points as indicated."}, "IFN-Γ": {"test_system": "IFN-Γ", "test": "ELISpot assay for T cell generation of IFN-Γ in PBLs from CAN patients", "format": "in vivo, human", "method": "Once identified, study subjects were randomized and treated with either losartan (25-100 mg) as part of their anti-hypertensive regimen or with other types of anti-hypertensive agents, e.g., calcium channel blockers. Agents functioning as AT1R blockers were excluded. Neither group received ACE inhibitors. Study subjects were maintained on their standard immunosuppressive regimen (corticosteroids 5-10 mg orally daily; mycophenolate mofetil 500 to 1000 mg orally twice a day; and calcineurin inhibition with either tacrolimus (target levels 2-5 ng/ml), cyclosporine A (target levels 100-150 ng/ml), or rapamycin (target levels 5-15 ng/ml ). Eight to nine milliliters of whole blood taken at each time point from each individual were incubated at room temperature in 40 ml ACK lysis buffer (150 mM NH4Cl, 10 mM KHCO3, 0.1 mM Na2EDTA, pH 7.3) for 10 minutes to lyse red blood cells. Samples were then centrifuged at 1000 rpm. The supernatant was discarded. Cells were resuspended in 10 ml complete RPMI media (RPMI-1640, BioWhitaker, Walkersville, Md.) supplemented with FCS (Sigma Aldrich, St. Louis, Mo.); 2 mM L-glutamine (BioWhitaker); 50 μM 2-β-mercaptoethanol (Sigma Aldrich); 100 U/ml penicillin; and 100 μg/ml streptomycin sulfate (Sigma Aldrich). Twenty μl of this sample was removed for cell enumeration. Forty ml of complete RPMI media was then added to the remaining sample and this was centrifuged at 1000 rpm for 10 minutes. The resulting PBL pellet was resuspended in complete RPMI media at a concentration of 1.5×10^6 cells per ml. ELISpot assays were conducted according to the manufacturer's directions (Cellular Technology Ltd., Cleveland, Ohio). Briefly, after plating cells in the proliferation assay, the balance of the cells unused in that assay were used for the ELISpot assay at a concentration of 3×10^6 cells per ml. One hundred μl of RPMI media were added to each well with a multichannel pipetter. Aliquots of treated and untreated cells (300 μl) were added to the IFN-Γ and IL-5 wells with serial two-fold dilutions. The last row served as a media control. ELISpot plates were incubated for two days at 37EC. Plates were washed three times with PBS and then washed three times with PBS/Tween. Secondary detection antibodies (OptElA, IFN, and IL-5 obtained from the aforementioned kits) were diluted at 4 μl/ml in 1% BSA/PBS and added to the plates for 24 hours at 4EC. The plates were then washed four times with PBS/Tween. Streptavidin alkaline phosphatase 1:1000 (Dako Cytomation, Glostrop, Denmark, catalog no. D0396) 100 μl/well diluted in 1% BSA/PBS/Tween was then added to the plates at room temperature for two hours. […] Plate images were then scanned into computer images and spots analyzed using Immunospot-brand software (from CTL Technologies)."}, "IL-4 or IL-5": {"test_system": "IL-4 or IL-5", "test": "ELISpot assay for IL-4 or IL-5 production in PBLs from CAN patients", "format": "in vivo, human", "settings": "following institution of ARB therapy (data not shown)", "method": "Once identified, study subjects were randomized and treated with either losartan (25-100 mg) as part of their anti-hypertensive regimen or with other types of anti-hypertensive agents, e.g., calcium channel blockers. Agents functioning as AT1R blockers were excluded. Neither group received ACE inhibitors. Study subjects were maintained on their standard immunosuppressive regimen (corticosteroids 5-10 mg orally daily; mycophenolate mofetil 500 to 1000 mg orally twice a day; and calcineurin inhibition with either tacrolimus (target levels 2-5 ng/ml), cyclosporine A (target levels 100-150 ng/ml), or rapamycin (target levels 5-15 ng/ml ). ELISpot assays were conducted according to the manufacturer's directions (Cellular Technology Ltd., Cleveland, Ohio). Briefly, after plating cells in the proliferation assay, the balance of the cells unused in that assay were used for the ELISpot assay at a concentration of 3×10^6 cells per ml. One hundred μl of RPMI media were added to each well with a multichannel pipetter. Aliquots of treated and untreated cells (300 μl) were added to the IFN-Γ and IL-5 wells with serial two-fold dilutions. The last row served as a media control. ELISpot plates were incubated for two days at 37EC. […] Plate images were then scanned into computer images and spots analyzed using Immunospot-brand software (from CTL Technologies)."}, "[3]": {"test": "Systolic blood pressure in the study cohort", "format": "in vivo, human", "settings": "every clinic visit at 3-month intervals", "method": "FIG. 1A is a graph depicting the systolic blood pressure in the study cohort. (The study cohort is described in the Examples.) Blood pressure was assessed at every clinic visit at 3-month intervals. […] Data shown are mean±standard deviation.”\nas §1, §2"}, "[4]": {"test": "Estimated glomerular filtration rate (eGFR) in the study cohort", "format": "in vivo, human", "settings": "with institution of ARB therapy, compared to control group", "method": "FIG. 1B is a graph depicting the estimated glomerular filtration rate (eGFR) in the study cohort. Estimated GFR was calculated using the second equation derived by Nankivell et al. at the time points designated in the Examples. […] The eGFR in the ARB-treated cohort (-o-) declined slightly after treatment as compared to the control group (-▪-). Data shown are mean±standard deviation.\nas §1\nStudy subjects underwent biopsies at the initiation of the study. Simultaneously, whole blood samples were obtained for analysis of peripheral blood lymphocyte proliferation and stimulated cytokine production. […] Estimated glomerular filtration rate (eGFR) was assessed using the second equation derived by Nankivell. […]"}, "STAT1": {"test_system": "STAT1", "settings": "losartan treatment; cited from earlier work"}, "STAT3": {"test_system": "STAT3", "settings": "losartan treatment; cited from earlier work"}}}
{"smiles": "CCCc1nc2c(C)cc(-c3nc4ccccc4n3C)cc2n1Cc1ccc(-c2ccccc2C(=O)O)cc1", "note": "[Telmisartan, 4′-[(1,4′-dimethyl-2′-propyl [2,6′-bi-1H-benzimidazol]-1′-yl)methyl]-[1,1′-biphenyl]-2-carboxylic acid]", "values": [{"measurement": "solubility in strong acids", "setting": "[1]; strong acids (except HCl)", "value": "sparingly soluble"}, {"measurement": "solubility in strong bases", "setting": "[1]; strong bases", "value": "soluble"}, {"measurement": "solubility in water within a pH range", "setting": "[1]; water, pH range of from 3 to 9", "value": "practically insoluble"}]}
{"smiles": "CCCCc1nc(Cl)c(C(=O)O)n1Cc1ccc(-c2ccccc2-c2nn[nH]n2)cc1", "note": "[active metabolite of losartan]", "values": [{"measurement": "plasma-free fraction", "setting": "plasma proteins", "value": 0.2, "unit": "%"}]}
{"smiles": "CCCCc1nc(Cl)c(CO)n1Cc1ccc(-c2ccccc2-c2nnn[nH]2)cc1.[K]", "note": "[losartan, 2-butyl-4-chloro-1-[p-(o-1H-tetrazol-5-ylphenyl)benzyl]imidazole-5-methanol monopotassium salt]", "values": [{"measurement": "urinary H2O2 excretion", "setting": "urinary H2O2; 6 months of treatment", "value": "2.17 ± 0.42", "unit": "µM"}, {"measurement": "urinary H2O2 excretion", "setting": "urinary H2O2; 9 months of treatment, p<0.05 vs. time 0", "value": "1.65 ± 0.49", "unit": "µM"}, {"measurement": "urinary H2O2", "setting": "urinary H2O2; baseline (time 0), ARB cohort", "value": "2.51 ± 0.62", "unit": "µM"}, {"measurement": "reduction in T lymphocyte proliferation indices versus the control group", "setting": "[2]; 6 month of losartan treatment, p<0.005", "value": "69±47", "unit": "% decrease"}, {"measurement": "reduction in T lymphocyte proliferation indices versus the control group", "setting": "[2]; 9 month of losartan treatment, p<0.05", "value": "52±21", "unit": "% decrease"}, {"measurement": "Δ proliferation index (change from baseline)", "setting": "[2]; three, six, and nine months, p<0.04", "value": "significant reduction"}, {"measurement": "IFN-Γ producing cells (ELISpot)", "setting": "IFN-Γ; 3 months, p=0.01 vs control", "value": "4127±1289", "unit": "spots per 1×10^6 cells"}, {"measurement": "IFN-Γ producing cells (ELISpot)", "setting": "IFN-Γ; 6 months, p=0.05 vs control", "value": "3899±1508", "unit": "spots per 1×10^6 cells"}, {"measurement": "IFN-Γ producing cells (ELISpot)", "setting": "IFN-Γ; 9 months, p<0.001 vs control", "value": "3845±1493", "unit": "spots per 1×10^6 cells"}, {"measurement": "IFN-Γ producing cells (ELISpot)", "setting": "IFN-Γ; 12 months, p<0.05 vs control", "value": "4276±1456", "unit": "spots per 1×10^6 cells"}, {"measurement": "IL-4 or IL-5 production", "setting": "IL-4 or IL-5", "value": "no significant change"}, {"measurement": "systolic blood pressure, ARB-treated versus non-ARB-treated cohort", "setting": "[3]", "value": "no significant differences"}, {"measurement": "eGFR", "setting": "[4]", "value": "slight reduction"}, {"measurement": "plasma-free fraction", "setting": "plasma proteins", "value": 1.3, "unit": "%"}, {"measurement": "solubility in common organic solvents", "setting": "[1]; acetonitrile and methyl ethyl ketone", "value": "slightly soluble"}, {"measurement": "solubility in alcohols", "setting": "[1]; alcohols", "value": "soluble"}, {"measurement": "solubility in water", "setting": "[1]; water", "value": "freely soluble"}, {"measurement": "phosphorylation of STAT1", "setting": "STAT1", "value": "decrease phosphorylation"}, {"measurement": "phosphorylation of STAT3", "setting": "STAT3", "value": "decrease phosphorylation"}]}
